# Results reported in paper PMC8766756, “Insights on Cancer Cell Inhibition, Subcellular Activities, and Kinase Profile of Phenylacetamides Pending 1H-Imidazol-5-One Variants” (Frontiers in Pharmacology, 2022).
# “Also recorded” adds a separate entry of the source.
# Legend:
# Experiment in all cases: Human Phospho-Kinase Array in HL60 cells
# Format in all cases: cell-based
# [1] = test system: GSK-3α/β (S21/S9)
# Text: (§1) We also measured changes in kinase activities of some selected Ser/Thr kinases using the Human Phospho-Kinase Array® kit (R&D Systems) which encompasses phosphoprotein-specific capture antibodies spotted at a certain location (in duplicates) on a nitrocellulose membrane. The signal intensities, detected by a sandwich immunoassay, are proportional to the amount of each phosphokinase in the cell lysate (Figure 8).
# (§2) FIGURE 8 Phosphokinase proteome profile of KIM-161 in HL60 cell line. (A) Cells lysates were prepared after 10 h treatment with KIM-161 and applied to the membranes prespotted with the different antibodies. […] The height of each bar represents the average intensity of certain protein signals in treated cells/untreated × 100. Therefore, the dotted line represents the control percentage (100%).
# (§3) The phosphorylation profile of 48 kinases was performed using the Proteome Profiler Human Phospho-Kinase Array an antibody array kit, by R&D Systems (Minneapolis, MN, USA). Total protein was extracted from the cell lysates treated with 365 nM KIM-161 for 10 h using the lysis buffer provided in the kit and quantified using the Bio-Rad DC Protein Assay kit (USA). The nitrocellulose membrane set (A&B), pre-spotted with the capture antibodies, was first blocked with 1 ml of Array buffer 1 at RT for 1 h in an 8-well multi-dish on a rocking platform shaker. Approximately 600 µg of protein concentrate (<334 µL) was diluted in the Array buffer 1 to a final volume of 2 ml. 1 ml of the protein sample was added onto the membrane set and incubated overnight at 4°C on a rocking platform shaker. Subsequently, membranes were washed with 15 ml of 1× wash buffer thrice for 5 min at RT, and the excess buffer was completely drained. The membranes A&B were then incubated with appropriate detection antibody cocktails A&B that were reconstituted using the 1× Array buffer 2/3 for 2 h at RT. After the incubation was complete, the membranes were washed with 15 ml of 1× wash buffer thrice for 5 min at RT, and the excess buffer was completely drained. Streptavidin-HRP (1:2000), diluted in 1× Array buffer 2/3, was applied onto the membranes and incubated for 30 min at RT on a rocking platform shaker. The membranes were washed thrice, and Chemi Reagent 1&2 were applied in equal volumes for detection on C-DiGit®Blot Scanner (LI-COR Odyssey Imaging Systems, Lincoln, Nebraska, USA) using the Image Studio 5.0 software.
# [2] = test system: C-Jun
# Text: as §1, §2, §3
# [3] = test system: JNK 1/2/3
# Text: as §1, §2, §3
# [4] = test system: STAT2 (Y689)
# Text: as §1, §2, §3
# [5] = test system: AKT 1/2/3; details: 10 h (KIM-161 365 nM)
# Text: as §1, §2, §3
# [6] = test system: Chk-2
# Text: as §1, §2, §3
# [7] = test system: CREB
# Text: as §1, §2, §3
# [8] = test system: HSP60
# Text: as §1, §2, §3
# [9] = test system: AMPKα1
# Text: as §1, §2, §3
# [10] = test system: HSP27 (S78/S82)
# Text: as §1, §2, §3
# [11] = test system: ERK1/2 (T202/Y204, T185/Y187)
# Text: as §1, §2, §3
# [12] = GSK-3α/β spot, HL60 cells, 10 h (KIM-161 365 nM)
# [13] = HL60, 365 nM, 10 h, vs untreated, listed as KIM-161
# [14] = C-Jun spot, HL60 cells, 10 h (KIM-161 365 nM)
# [15] = HL60, 365 nM, 10 h, vs untreated
# [16] = JNK 1/2/3 spot, HL60 cells, 10 h (KIM-161 365 nM)
# [17] = STAT2 spot, HL60 cells, 10 h (KIM-161 365 nM)
# [18] = Chk-2 spot, HL60 cells, 10 h (KIM-161 365 nM)
# [19] = CREB spot, HL60 cells, 10 h (KIM-161 365 nM)
# [20] = HSP60 spot, HL60 cells, 10 h (KIM-161 365 nM)
# [21] = AMPKα1 spot, HL60 cells, 10 h (KIM-161 365 nM)
# [22] = HSP27 spot, HL60 cells, 10 h (KIM-161 365 nM)
# [23] = ERK1/2 spot, HL60 cells, 10 h (KIM-161 365 nM)
smiles,measurement,setting,value
"COc1ccc(/C=C2\N=C(C)N(c3ccc(CC(=O)NCc4ccccc4)cc3)C2=O)cc1 [Compound 4c, (Z)-N-Benzyl-2-(4-(4-(4-methoxybenzylidene)-2-methyl-5-oxo-4,5-dihydro-1H-imidazol-1-yl)phenyl)acetamide]",Normalized to HK,[1]; [12],0.0000
same,Normalized x10K,[1]; [12],0.00
same,Signal,[1]; [12],0.00
same,change of GSK-3α/β phosphokinase signal,[1]; [13],strongly suppresses; also recorded: strong downregulation
same,activity at 0.365 µM,"[1]; Homo sapiens, HL-60, GSK-3α/β spot, HL60 cells, 10 h (KIM-161 365 nM), untreated = 100, read-out: % Ctrl",0%
same,Normalized to HK,[2]; [14],0.1136
same,Normalized x10K,[2]; [14],1136.44
same,Signal,[2]; [14],451.20
same,enhancement of c-Jun,[2]; [15],15.8%
same,activity at 0.365 µM,"[2]; Homo sapiens, HL-60, C-Jun spot, HL60 cells, 10 h (KIM-161 365 nM), untreated = 100, read-out: % Ctrl",116%
same,reduction of JNK1/2/3 activity,[3]; [15],26.0%
same,activity at 0.365 µM,"[3]; Homo sapiens, HL-60, JNK 1/2/3 spot, HL60 cells, 10 h (KIM-161 365 nM), untreated = 100, read-out: % Ctrl",74%
same,Normalized to HK,[3]; [16],0.0031
same,Normalized x10K,[3]; [16],31.34
same,Signal,[3]; [16],11.01
same,change of STAT2 phosphokinase signal,[4]; [13],strongly suppresses; also recorded: strong downregulation
same,activity at 0.365 µM,"[4]; Homo sapiens, HL-60, STAT2 spot, HL60 cells, 10 h (KIM-161 365 nM), untreated = 100, read-out: % Ctrl",0%
same,Normalized to HK,[4]; [17],0.00
same,Normalized x10K,[4]; [17],0.00
same,Signal,[4]; [17],0.00
same,Normalized to HK,[5]; AKT 1/2/3 spot,0.00
same,Normalized x10K,[5]; AKT 1/2/3 spot,0.00
same,Signal,[5]; AKT 1/2/3 spot,0.00
same,activity at 0.365 µM,"[5]; Homo sapiens, HL-60, AKT 1/2/3 spot, untreated = 100, read-out: % Ctrl",0%
same,Normalized to HK,[6]; [18],0.00913
same,Normalized x10K,[6]; [18],91.25
same,Signal,[6]; [18],32.06
same,change of Chk-2 activity,[6]; [15],upregulated
same,Normalized to HK,[7]; [19],0.0405
same,Normalized x10K,[7]; [19],405.44
same,Signal,[7]; [19],142.45
same,reduction of CREB activity,[7]; [15],36.7%
same,activity at 0.365 µM,"[7]; Homo sapiens, HL-60, CREB spot, HL60 cells, 10 h (KIM-161 365 nM), untreated = 100, read-out: % Ctrl",63.3%
same,reduction of HSP60 activity,[8]; [15],28.5%
same,Normalized to HK,[8]; [20],0.0227
same,Normalized x10K,[8]; [20],227.18
same,Signal,[8]; [20],90.20
same,activity at 0.365 µM,"[8]; Homo sapiens, HL-60, HSP60 spot, HL60 cells, 10 h (KIM-161 365 nM), untreated = 100, read-out: % Ctrl",71.5%
same,Normalized to HK,[9]; [21],0.0019
same,Normalized x10K,[9]; [21],18.91
same,Signal,[9]; [21],6.64
same,change of AMPKα1 phosphorylation,[9]; [13],downregulated; also recorded: to a quarter of its level compared to the control
same,activity at 0.365 µM,"[9]; Homo sapiens, HL-60, AMPKα1 spot, HL60 cells, 10 h (KIM-161 365 nM), untreated = 100, read-out: % Ctrl",27.9%
same,change of HSP27 phosphokinase signal,[10]; [13],strongly suppresses; also recorded: strong downregulation
same,Normalized to HK,[10]; [22],0.00
same,Normalized x10K,[10]; [22],0.00
same,Signal,[10]; [22],0.00
same,activity at 0.365 µM,"[10]; Homo sapiens, HL-60, HSP27 spot, HL60 cells, 10 h (KIM-161 365 nM), untreated = 100, read-out: % Ctrl",0%
same,Normalized to HK,[11]; [23],0.0000
same,Normalized x10K,[11]; [23],0.00
same,Signal,[11]; [23],0.00
same,change of ERK1/2 phosphokinase signal,[11]; [13],strongly suppresses; also recorded: strong downregulation
same,activity at 0.365 µM,"[11]; Homo sapiens, HL-60, ERK1/2 spot, HL60 cells, 10 h (KIM-161 365 nM), untreated = 100, read-out: % Ctrl",0%
